# Assay results: patent US9969887B2, “Merocyanine-based compounds, and dyes, kits and contrast medium compositions for labelling biomolecules comprising the same” (SFC CO., LTD., priority 2016, dated 2018)
# Entries after “also recorded” stand apart in the source; their conditions may differ.
# How the values were obtained:
# [1] = Absorption and emission spectra, molar extinction coefficient and quantum efficiency in solvent; format: physicochemical
# Procedure: Absorption spectra (λabs), emission spectra (λem), molar extinction coefficient (ε) and quantum efficiency of compounds 1 to 8 obtained in Preparation Examples 1 to 4, and commercially available SYBR® safe were measured and shown in Table 1 below.
# Absorption spectra (λabs), emission spectra (λem), molar extinction coefficient (ε) and quantum efficiency of Compounds 36 to 39 obtained in Preparation Examples 6 and 7 and commercially available SYBR® safe were measured and shown in Table 2 below.
# DNA = assay: Absorption and emission spectra and quantum efficiency in the presence of DNA; format: physicochemical
# Procedure: Absorption spectra (λabs), emission spectra (λem) and quantum efficiency measured in the presence of DNA with compounds 1 to 8 and 36 to 39, and commercially available SYBR® safe were measured and are shown in Table 3 below.
# [2] = tested on: Salmonella typhimurium TA98 strain; assay: Ames test with S9 mixture; details: for Number of colonies per plate: TA98, S9 mixture
# Photobleaching test = format: physicochemical; details: low concentration
# Procedure: Real-Time PCR was performed in a 20 μL reaction solution containing only 5 μL of fluorescent dyes (Compound 38, SYBR® green I (Invitrogen) or EvaGreen™ (Biotium)) at various concentrations (dilution times). Cycles of 30 seconds at 25° C. and 30 seconds at 25° C. were repeated 60 times. Fluorescence intensity was measured for each cycle (1 minute) to observe photobleaching of fluorescent dyes at various concentrations (dilution times).
# Hela cells = assay: Cell permeability test; format: cell-based; details: 1 μM, 37° C., 30 minutes, microscope
# Procedure: Hela cells were cultured in MEM medium containing 10% fetal bovine serum (FBS) and 1% penicillin/streptomycin (10,000 units penicillin and 10,000 μg/mL streptomycin, Invitrogen) under a humidified atmosphere of CO2 at 37° C. Hela cells were washed with medium No. 3, and 1 μM of SYBR® safe and Compound 6 were treated with Hela Cells and cultured at 37° C. for 30 minutes.
# [3] = Thermal stability test, absorbance on standing at 95° C. in PCR reaction buffer; format: physicochemical
# Procedure: In order to confirm the stability of the fluorescent dye in the PCR reaction, 20 μL of PCR reaction buffer containing 1 μL of Compound 38 and 1 μL of EvaGreen™ (Biotium), respectively, was prepared. Each PCR reaction buffer was heated to 95° C., and the absorbance which varies with the standing time at 95° C. was measured.
Quantum efficiency ([1]; DMSO),ε (molar extinction coefficient) ([1]; DMSO),λabs ([1]; DMSO),λem ([1]; DMSO),Quantum efficiency ([1]; buffer),ε (molar extinction coefficient) ([1]; buffer),λabs ([1]; buffer),λem ([1]; buffer),Quantum efficiency (DNA),λabs (DNA),λem (DNA),SMILES,also measured
0.65,"95,000 M^−1cm^−1",492 nm,520 nm,0.12,"83,000 M^−1cm^−1",458 nm,526 nm,0.67,492 nm,511 nm,O=C(CCCCCN1C=CC2=C3c4oc5ccccc5[n+]4CCC3Oc3cccc1c32)NCCOCCNC(=O)CCCCCN1C=CC2=C3c4oc5ccccc5[n+]4CCC3Oc3cccc1c32 (stereo not shown) [Compound 36],
,,,,,,,,,,,CCCN(CCCN(C)C)c1cc(/C=C2/Sc3ccccc3N2C)c2ccccc2[n+]1-c1ccccc1 [SYBR ® green I],half-life (photobleaching) (Photobleaching test): 5.5 h
0.64,"73,000 M^−1cm^−1",517 nm,564 nm,0.05,"60,000 M^−1cm^−1",484 nm,562 nm,0.86,517 nm,537 nm,O=C(CCCCCN1C=CC2=C3c4sc5ccc(Cl)cc5[n+]4CCC3Oc3cccc1c32)NCCOCCNC(=O)CCCCCN1C=CC2=C3c4sc5ccc(Cl)cc5[n+]4CCC3Oc3cccc1c32 (stereo not shown) [Compound 5],
0.70,"116,000 M^−1cm^−1",492 nm,520 nm,0.15,"98,000 M^−1cm^−1",459 nm,523 nm,0.70,492 nm,513 nm,O=C(CCCCCN1C=CC2=C3c4oc5ccccc5[n+]4CCC3Oc3cccc1c32)NCCCOCCOCCOCCCNC(=O)CCCCCN1C=CC2=C3c4oc5ccccc5[n+]4CCC3Oc3cccc1c32 (stereo not shown) [Compound 39],
0.52,"109,000 M^−1cm^−1",517 nm,567 nm,0.03,"92,000 M^−1cm^−1",484 nm,568 nm,1.00,517 nm,541 nm,O=C(CCCCCN1C=CC2=C3c4sc5ccccc5[n+]4CCC3Oc3cccc1c32)NCCOCCNC(=O)CCCCCN1C=CC2=C3c4sc5ccccc5[n+]4CCC3Oc3cccc1c32 (stereo not shown) [Compound 1],
,,,,,,,,,,,"CC[n+]1c(-c2ccccc2)c2cc(N)ccc2c2ccc(N)cc21.[Br-] [EtBr, ethidium bromide, reference compound]",Number of colonies per plate ([2]; 40 μg/plate): 3051 ± 181
0.64,"83,000 M^−1cm^−1",517 nm,563 nm,0.06,"75,000 M^−1cm^−1",484 nm,560 nm,0.71,517 nm,538 nm,O=C(CCCCCN1C=CC2=C3c4sc5ccc(Cl)cc5[n+]4CCC3Oc3cccc1c32)NCCOCCOCCOCCNC(=O)CCCCCN1C=CC2=C3c4sc5ccc(Cl)cc5[n+]4CCC3Oc3cccc1c32 (stereo not shown) [Compound 7],
0.71,"89,000 M^−1cm^−1",517 nm,563 nm,0.04,"78,000 M^−1cm^−1",484 nm,565 nm,0.80,517 nm,538 nm,O=C(CCCCCN1C=CC2=C3c4sc5ccc(Cl)cc5[n+]4CCC3Oc3cccc1c32)NCCCOCCOCCOCCCNC(=O)CCCCCN1C=CC2=C3c4sc5ccc(Cl)cc5[n+]4CCC3Oc3cccc1c32 (stereo not shown) [Compound 8],
0.73,"95,000 M^−1cm^−1",517 nm,565 nm,0.03,"85,000 M^−1cm^−1",484 nm,566 nm,0.88,517 nm,539 nm,O=C(CCCCCN1C=CC2=C3c4sc5ccccc5[n+]4CCC3Oc3cccc1c32)NCCOCCOCCOCCNC(=O)CCCCCN1C=CC2=C3c4sc5ccccc5[n+]4CCC3Oc3cccc1c32 (stereo not shown) [Compound 4],
0.67,"110,000 M^−1cm^−1",492 nm,520 nm,0.17,"95,000 M^−1cm^−1",459 nm,522 nm,0.76,492 nm,512 nm,O=C(CCCCCN1C=CC2=C3c4oc5ccccc5[n+]4CCC3Oc3cccc1c32)NCCOCCOCCOCCNC(=O)CCCCCN1C=CC2=C3c4oc5ccccc5[n+]4CCC3Oc3cccc1c32 (stereo not shown) [Compound 38],"high temperature stability ([3]; 95° C., compared with EvaGreen): greater than EvaGreen™; Absorbance ([3]; standing time 0 hr at 95° C.): 0.127; Absorbance ([3]; standing time 0.5 hr at 95° C.): 0.149; Absorbance ([3]; standing time 1 hr at 95° C.): 0.162; Absorbance ([3]; standing time 2 hr at 95° C.): 0.163; Absorbance ([3]; standing time 3 hr at 95° C.): 0.178"
0.63,"100,000 M^−1cm^−1",492 nm,520 nm,0.14,"85,000 M^−1cm^−1",458 nm,524 nm,0.64,492 nm,512 nm,O=C(CCCCCN1C=CC2=C3c4oc5ccccc5[n+]4CCC3Oc3cccc1c32)NCCOCCOCCNC(=O)CCCCCN1C=CC2=C3c4oc5ccccc5[n+]4CCC3Oc3cccc1c32 (stereo not shown) [Compound 37],
0.88,"101,000 M^−1cm^−1",517 nm,566 nm,0.08,"83,000 M^−1cm^−1",484 nm,565 nm,0.93,517 nm,541 nm,O=C(CCCCCN1C=CC2=C3c4sc5ccccc5[n+]4CCC3Oc3cccc1c32)NCCCOCCOCCOCCCNC(=O)CCCCCN1C=CC2=C3c4sc5ccccc5[n+]4CCC3Oc3cccc1c32 (stereo not shown) [Compound 2],

SMILES,Quantum efficiency ([1]; DMSO),ε (molar extinction coefficient) ([1]; DMSO),λabs ([1]; DMSO),λem ([1]; DMSO),Quantum efficiency ([1]; buffer),ε (molar extinction coefficient) ([1]; buffer),λabs ([1]; buffer),λem ([1]; buffer),Quantum efficiency (DNA),λabs (DNA),λem (DNA),also measured
O=C(CCCCCN1C=CC2=C3c4sc5ccc(Cl)cc5[n+]4CCC3Oc3cccc1c32)NCCOCCOCCNC(=O)CCCCCN1C=CC2=C3c4sc5ccc(Cl)cc5[n+]4CCC3Oc3cccc1c32 (stereo not shown) [Compound 6],0.62,"70,000 M^−1cm^−1",517 nm,563 nm,0.04,"60,000 M^−1cm^−1",484 nm,564 nm,0.73,517 nm,538 nm,"Number of colonies per plate ([2]; 8 μg/plate): 24 ± 6; Number of colonies per plate ([2]; 40 μg/plate): 57 ± 3; genotoxicity (Ames test), in words ([2]; TA98, S9 metabolic activity): no significant increase in colony counts; also recorded: lower genotoxicity than SYBR® safe"
"CCC[n+]1ccc(/C=C2\Sc3ccccc3N2C)c2ccccc21 [SYBR ® safe, reference compound]",0.006,"77,000 M^−1cm^−1",509 nm,,0.006,"57,000 M^−1cm^−1",502 nm,,0.021,503 nm,535 nm,cell permeability (Hela cells): shows cell permeability; Number of colonies per plate ([2]; 1.6 μg/plate): 81 ± 7
O=C(CCCCCN1C=CC2=C3c4sc5ccccc5[n+]4CCC3Oc3cccc1c32)NCCOCCOCCNC(=O)CCCCCN1C=CC2=C3c4sc5ccccc5[n+]4CCC3Oc3cccc1c32 (stereo not shown) [Compound 3],0.55,"84,000 M^−1cm^−1",517 nm,565 nm,0.03,"66,000 M^−1cm^−1",484 nm,564 nm,0.86,517 nm,540 nm,
